In PMC12301304 (Frontiers in Pharmacology, 2025):
Like-named read-outs stand apart in the source and are kept apart here.

Columns and labels:
CYP3a1 [1] = molecular target: T1, CYP3a1 (Rattus norvegicus, UniProt P04800)
T1 sequence (P04800 1-504): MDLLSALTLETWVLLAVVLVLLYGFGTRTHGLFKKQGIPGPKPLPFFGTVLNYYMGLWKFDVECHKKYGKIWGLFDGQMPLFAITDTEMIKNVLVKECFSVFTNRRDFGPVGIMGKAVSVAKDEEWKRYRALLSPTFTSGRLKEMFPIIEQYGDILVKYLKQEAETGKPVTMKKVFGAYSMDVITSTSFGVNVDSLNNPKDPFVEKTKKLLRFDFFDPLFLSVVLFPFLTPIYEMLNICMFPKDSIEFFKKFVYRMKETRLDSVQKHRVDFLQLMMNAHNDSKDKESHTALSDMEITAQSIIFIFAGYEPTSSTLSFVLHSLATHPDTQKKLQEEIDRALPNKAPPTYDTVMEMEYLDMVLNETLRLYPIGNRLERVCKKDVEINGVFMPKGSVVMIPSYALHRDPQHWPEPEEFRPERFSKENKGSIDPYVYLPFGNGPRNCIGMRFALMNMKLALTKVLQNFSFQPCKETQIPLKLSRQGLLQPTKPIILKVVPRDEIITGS
Method: (§1) The effect of the Zhicaowu–Hezi combination on CYP450 enzymes in RLM was evaluated by assessing the metabolic clearance rates of theophylline, metoprolol, bupropion, mephenytoin (CYP2c13), chlorzoxazone, testosterone, and diclofenac.
(§2) On day 15, the rats were humanely euthanized, and liver tissues were excised for microsomal preparation. […] Livers from each group were repeatedly washed with ice-cold phosphate buffered saline (PBS). […] Subsequently, they were blotted dry with filter paper, weighed, and homogenized by adding 4 mL of ice-cold PBS per gram of liver tissue. The mixture was homogenized in an ice bath. The liver homogenate was subjected to centrifugation at 10,000 RPM for 20 min at 4°C. The resulting supernatant was then combined with an ice-cold 88-mmol/L CaCl2 solution at a 1:1 ratio, and the mixture was homogenized in an ice bath for 5 min. The resulting solution was then centrifuged at 25,000 × g for 30 min at 4°C. The supernatant was discarded and the precipitate was repeatedly resuspended in PBS–20% glycerol buffer. The precipitate was then stored in a separate bottle at −80°C for backup. The protein concentration of the prepared RLM was determined using a bicinchoninic acid protein assay kit.
(§3) Preincubation was conducted for 5 min in a water bath at 37°C, after which NADPH (1 mmol/L) was added, and incubation continued for 30 min at 37°C. Once the incubation period elapsed, the reaction was terminated by the addition of an ice-cold IS-containing acetonitrile solution. The samples were vortexed for 2 min and centrifuged at 15,000 RPM for 10 min. The resulting supernatant was filtered through a 0.22-μm organic microporous membrane, and 20 μL of the filtered solution was injected into the HPLC assay. To prevent the organic solvents from inducing or inhibiting the enzyme, the volume fraction of organic solvents in the entire incubation system was maintained at 1%. […] The inhibitor group was added with corresponding inhibitor, while all other procedures remained identical.

CYP2b1 [2] = molecular target: T2, CYP2b1 (Rattus norvegicus, UniProt P00176); assay: RLM incubation: metabolic clearance rate of bupropion (CYP2b1); conditions: RLM 0.5 mg/mL, 30 min 37°C, inhibitor added, blank control 7.92 ± 0.60, n = 3
T2 sequence (P00176 1-491): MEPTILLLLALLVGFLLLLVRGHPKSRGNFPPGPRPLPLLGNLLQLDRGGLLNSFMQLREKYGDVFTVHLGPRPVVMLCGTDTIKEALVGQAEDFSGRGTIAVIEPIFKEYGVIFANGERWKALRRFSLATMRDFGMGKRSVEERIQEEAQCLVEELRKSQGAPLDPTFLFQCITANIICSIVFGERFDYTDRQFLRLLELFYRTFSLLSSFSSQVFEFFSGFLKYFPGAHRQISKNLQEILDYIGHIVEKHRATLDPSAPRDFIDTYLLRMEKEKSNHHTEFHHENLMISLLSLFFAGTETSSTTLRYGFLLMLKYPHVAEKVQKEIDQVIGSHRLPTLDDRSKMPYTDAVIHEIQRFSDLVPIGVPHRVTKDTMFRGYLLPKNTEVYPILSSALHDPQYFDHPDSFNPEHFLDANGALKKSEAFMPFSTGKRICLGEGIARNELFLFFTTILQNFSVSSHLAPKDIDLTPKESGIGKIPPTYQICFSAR
Method: as §1, §2, §3

CYP2d2 = molecular target: T3, CYP2d2 (Rattus norvegicus, UniProt P10634); set-up: from tissue; host or cells: live male Sprague-Dawley rats (whole animal, mainly liver); conditions: in vivo
T3 sequence (P10634 1-500): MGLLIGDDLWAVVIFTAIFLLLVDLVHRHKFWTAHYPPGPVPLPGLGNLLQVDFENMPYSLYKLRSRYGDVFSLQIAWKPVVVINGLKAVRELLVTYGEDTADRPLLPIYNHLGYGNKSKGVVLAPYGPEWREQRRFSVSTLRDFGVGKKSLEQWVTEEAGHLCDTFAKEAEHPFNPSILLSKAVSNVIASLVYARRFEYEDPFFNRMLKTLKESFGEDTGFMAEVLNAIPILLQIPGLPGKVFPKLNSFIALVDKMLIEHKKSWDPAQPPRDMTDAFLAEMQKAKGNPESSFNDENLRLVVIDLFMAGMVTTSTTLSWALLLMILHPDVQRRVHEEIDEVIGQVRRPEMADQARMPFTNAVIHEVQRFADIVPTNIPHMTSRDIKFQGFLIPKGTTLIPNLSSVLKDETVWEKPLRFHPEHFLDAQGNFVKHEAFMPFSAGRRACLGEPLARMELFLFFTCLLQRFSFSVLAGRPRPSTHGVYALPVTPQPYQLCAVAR
Method: (§4) The effect of the Zhicaowu–Hezi combination on CYP450 enzymes in rats was evaluated by examining the pharmacokinetics of theophylline (CYP1a2), metoprolol (CYP2d2), bupropion (CYP2b1), omeprazole (CYP2c13), chlorzoxazone (CYP2e1), testosterone (CYP3a1), and diclofenac (CYP2c11).
(§5) The collected blood was placed in sodium heparin-treated centrifuge tubes and centrifuged at 4°C for 10 min at 3,000 RPM. […] After 10 min of sedimentation, the supernatant was extracted through a 0.22-μm microporous membrane, 20 μL of which was injected into HPLC. The pharmacokinetic parameters of each probe drug were calculated using the non-atrial compartment model in Drug and Statistics software (DAS, 3.0; Shanghai, China).

CYP3a1 [3] = molecular target: T1, CYP3a1; set-up: from tissue; host or cells: live male Sprague-Dawley rats (whole animal, liver and intestine); conditions: in vivo
Method: as §4, §5

CYP2b1 [4] = molecular target: T2, CYP2b1; set-up: from tissue; host or cells: live male Sprague-Dawley rats (whole animal, mainly liver); conditions: in vivo
Method: as §4, §5

In the case of `O=c1cc(-c2ccccc2)oc2c1ccc1ccccc12` [α-naphthoflavone], the “CYP3a1 (%) metabolic clearance rate of probe drug” value (CYP3a1 [1]; RLM 0.5 mg/mL, 30 min 37°C, inhibitor added, probe testosterone, blank control 25.04 ± 1.93, n = 3) is reported as 25.69 ± 2.09% and the “CYP2b1(%) metabolic clearance rate of probe drug” value (CYP2b1 [2]) is reported as 8.00 ± 0.97%.
With `S=P(N1CC1)(N1CC1)N1CC1` [Thiotepa] the “CYP3a1 (%) metabolic clearance rate of probe drug” value (CYP3a1 [1]) was 25.72 ± 2.36% and the “CYP2b1(%) metabolic clearance rate of probe drug” value (CYP2b1 [2]) was 2.24 ± 0.16 %.
With `CCC1(c2ccccc2)C(=O)NC(=O)NC1=O` [P, phenobarbital sodium] the “metoprolol AUC(0-t)” value (CYP2d2) was 3511 ± 445 ng·h/mL, the “metoprolol AUC(0-∞)” value (CYP2d2) was 3623 ± 461 ng·h/mL and the “metoprolol CLz/F” value (CYP2d2) was 2,495.074 ± 157.841 mL/h/kg. The “metoprolol Cmax” value (CYP2d2) was 312 ± 41 ng/mL, the “metoprolol t1/2 z” value (CYP2d2) was 2.532 ± 0.221 h and the “testosterone AUC(0-t)” value (CYP3a1 [3]) was 756 ± 48 ng·h/mL. For the same compound, the “testosterone AUC(0-∞)” value (CYP3a1 [3]) was 907 ± 93 ng·h/mL, the “testosterone CLz/F” value (CYP3a1 [3]) was 6,479.436 ± 351.908 mL/h/kg and the “testosterone Cmax” value (CYP3a1 [3]) was 107 ± 15 ng/mL. The “testosterone t1/2 z” value (CYP3a1 [3]) was 7.394 ± 0.958 h, the “bupropion AUC(0-t)” value (CYP2b1 [4]) was 13249 ± 1396 ng·h/mL and the “bupropion AUC(0-∞)” value (CYP2b1 [4]) was 13714 ± 1057 ng·h/mL. For the same compound, the “bupropion CLz/F” value (CYP2b1 [4]) was 7.53418 ± 1.2563 mL/min/kg, the “bupropion Cmax” value (CYP2b1 [4]) was 1151 ± 138 ng/mL and the “bupropion t1/2 z” value (CYP2b1 [4]) was 15.564 ± 0.555 h.
